# Results: patent publication US20160287545A1, “COMPOUND PARTICULARLY FOR TREATING DEPRESSION AND ANXIETY” (priority 2012, published 2016)
# Legend:
# CD1 mice = test: swimming test in CD1 mice, antidepressant action of inhaled terpenes versus imipramine; type: in vivo; conditions: for isoeffect dose per body weight taking into account mean absorption factor (60%): 700x0.6, inhaling; for isoeffect dose with respect to imipramine: individual single inhalation giving approximately the same immobility time as imipramine, vaporized dose; for intrinsic activity (full agonist action, dose-effect comparison with imipramine): swimming test, inhaled; for antidepressant activity: vaporized, inhaled for 24 hours (12+12 hours); for isoeffect dose per body weight: versus 30 mg/kg of imipramine
# Procedure: 4. For each test, CD-1® (ICR) Specific Pathogen Free NAF mice (16/18 g upon arrival) were used, originating from the supplier facility Charles River Laboratories, Calco, Italy; 5 mice for the control group, 5 mice for the reference test with imipramine, 5 mice for the substance tested in the first 4 tests and then 10 mice for all the other tests. The choice of CD1 mice was determined by the fact that it is considered to be the animal model suitable for performing the swimming test for the evaluation of substances having an antidepressant action.
# 5. For terpene vaporization, “Elettromatt Turispharma” electric vaporizers were used (PCT/EP 97/01897, inventors Bevilacqua M, Zaccagna C A), heated to a constant temperature of 90° C.
# The three groups of mice were placed in three transparent plastic boxes with the size of 150 cm×75 cm and a volume di […] at a controlled temperature (19.0-21.0° C.), in air prefiltered with an HEPA absolute filter without flow, humidity (40-50%) and darkness/light cycle (12 hours/12 hours).
# The control group received the carrier (physiological solution) by IP pathway.
# The administration path of the substances being considered was intraperitoneal for imipramine and the pulmonary path was used for the terpene substances being considered, always vaporized with the same electric vaporizers.
# Reference test substance: imipramine 30 mg/Kg/ip=30.000 mcg/Kg/ip, equal to 0.6 mg per animal, administered 30 minutes before the test.
# Subsequent tests were performed with the individual components (35 mg repeated after 12 hours), in pairs (35 mg+35 mg, repeated after 12 hours) and then all three together (35+35+35 mg repeated after 12 hours).
# The treatment was performed 30 minutes before the test for the control group and for the imipramine group intraperitoneally. The third group was subject, after the T0 test, to vaporization for 24 hours (12+12 hours) of the anonymous substance being considered.
# mouse [1] = conditions: cited from earlier work
# [2] = cited from earlier work
# rat = conditions: cited from earlier work
# mouse [3] = conditions: cited from earlier work; remark: listed apart in the source
# [4] = in vivo; cited from earlier work
# patients with bulimia = conditions: followed on for two years; cited from earlier work
# [5] = cited from earlier work; remark: listed apart in the source
# rats = conditions: inhaling, swimming test; cited from earlier work
# [6] = inhalation for 2 hours during a 50 W workload, healthy volunteers; cited from earlier work
# [7] = rat; cited from earlier work
# [8] = 200 and 400 mg/kg orally, mouse
smiles,measurement,setting,value
"CC12CCC(CC1)C(C)(C)O2 [1,8-cineol]",isoeffect dose per body weight taking into account mean absorption factor (60%),CD1 mice,420 mg/kg
same,isoeffect dose with respect to imipramine,CD1 mice,70 mg
same,"intrinsic activity (full agonist action, dose-effect comparison with imipramine)",CD1 mice,1
same,antidepressant activity,CD1 mice,evident antidepressant activity
same,isoeffect dose per body weight,CD1 mice,700 mg/kg
same,"acute toxicity, oral dose",mouse [1],2480 mg/kg
same,time to detection in blood after inhaling,[2],5 min
same,time to concentration maximum in blood,[2]; inhaling,≤ 18 min
same,effect of pretreatment with naloxone on anti-nociceptive action,rat; oral dose between 100 and 400 mg/kilograms,not canceled out by pretreatment with naloxone
same,anti-nociceptive action,rat; rat,comparable to morphine
same,immobility time,mouse [3]; [8],significant increase in the immobility time
same,latency of pentobarbital sleep,mouse [3]; [8],reduced latency of pentobarbital sleep
same,dose observed in the literature,mouse [3]; in the mouse,200 to 400 mg/kg
same,motor coordination in the rotarod test,"mouse [3]; orally, mouse",no effects on motor coordination
"CC(=O)O[C@@H]1CC[C@@]2(C)[C@@H](CC[C@]3(C)[C@@H]2C(=O)C=C2[C@@H]4[C@@H](C)[C@H](C)CC[C@]4(C)CC[C@]23C)[C@@]1(C)C(=O)O [AKBA, acetyl-11-keto-beta-boswellic acid]",brain/plasma ratio,[4],~0.81
"C[C@H]1[C@H](C)CC[C@]2(C)CC[C@]3(C)C(=CC(=O)[C@@H]4[C@@]5(C)CC[C@@H](O)[C@](C)(C(=O)O)[C@@H]5CC[C@]43C)[C@H]12 [KBA, 11-keto-beta-boswellic acid]",brain/plasma ratio,[4],approximately 0.51
"CN(C)CCCN1c2ccccc2CCc2ccccc21 [imipramine, imipramine chloride hydrate]",total mean immobility time,"CD1 mice; imipramine 30 mg/Kg ip 30 minutes before the test, mean of all 9 tests, 45 mice",41.11±16.12
same,patients with considerable success,patients with bulimia,19 out of 20
same,solubility,[5],50 mg/mL
"C=C(C)[C@H]1CC=C(C)CC1 [limonene, (R)-(+)-limonene]",isoeffect dose per body weight taking into account mean absorption factor (60%),CD1 mice,420 mg/kg
same,isoeffect dose with respect to imipramine,CD1 mice,70 mg
same,"intrinsic activity (full agonist action, dose-effect comparison with imipramine)",CD1 mice,1
same,antidepressant activity,CD1 mice,evident antidepressant activity
same,isoeffect dose per body weight,CD1 mice,700 mg/kg
same,immobility time,rats,reduces significantly the immobility time
same,"pulmonary uptake, of the administered quantity",[6],70%
same,oral bioavailability,[7],43.0%
